Laboratory results: US9029384B2, “Phosphatidylinositol 3-kinase inhibitors” (Gilead Calistoga LLC, priority 2012, dated 2015)
Where two headings read alike, the source gives them in different places.

Key:
[1] = target: T1, PI3Kδ (Homo sapiens, UniProt O00329); test: Enzymatic activity of PI3K isoforms, TR-FRET assay (PIP3 formation); assay type: biochemical
T1 construct: made in house
Method in brief: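 Recombinant heterodimeric class I PI3K; PIP3 product measured by TR-FRET competition with labelled PIP3 for Eu-GRP-1 PH domain. Reaction 30 min at 25 °C, stopped with 10 mM EDTA.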

[2] = test system: basophils; test: Basophil activation in human whole blood (Flow2 CAST kit, CD63 positive cells); assay type: cell-based; settings: Homo sapiens
Method in brief: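 Human whole blood (K2-EDTA) preincubated 60 minutes at 37° C with compound serial dilutions or DMSO (0.3% final), then stimulated with anti-FcεRI mAb or fMLP and stained for CD63/CCR3. Percent CD63+ among ≥200 CCR3-high basophils by flow cytometry, normalized to stimulated vehicle as 100%. EC50 from four-parameter fits, geometric means in nM, concentrations corrected for reagent dilution.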

[3] = Hepatocyte stability, 1% final DMSO, 2 μM substrate (t1/2^a); assay type: in vitro ADME; settings: human, cryopreserved hepatocytes, TA with 1% final DMSO
Protocol: This assay was used to evaluate the metabolic stability of test articles (TA) following incubation in cryopreserved hepatocytes by monitoring parent drug disappearance via […]. The TA with 1% final DMSO concentration was incubated with 1 million hepatocytes/ml at 2 μM substrate in duplicate. The incubation was carried out at 37° C. with 5% CO2 and saturating humidity.

[4] = Hepatocyte stability, 0.01% final DMSO, 1 μM substrate (t1/2^b); assay type: in vitro ADME; settings: human, hepatocytes, TA with 0.01% final DMSO
Protocol: Alternatively, assay reagents and/or conditions can be modified in determining the inhibitory activities to PI3K isomers. In additional studies, similar assay using TA and 0.01% final DMSO concentration were incubated with 1 million hepatocytes/mL at 1 μM substrate in duplicate. The incubation was carried out at 37° C. with 5% CO2 and saturating humidity.

[5] = PI3Kδ, TR-FRET, 2×Km ATP, 10 μM PIP2, read-out: IC50
[6] = basophils activated with anti-FcεRI mAb or fMLP, geometric mean
[7] = 2 μM substrate, samples at 0, 1, 2, 4 hours, read-out: human hepatocyte t½^a
[8] = 1 μM substrate, samples at 0, 1, 3, 6 hours, read-out: human hepatocyte t½^b

T1 sequence (O00329 whole entry, canonical isoform): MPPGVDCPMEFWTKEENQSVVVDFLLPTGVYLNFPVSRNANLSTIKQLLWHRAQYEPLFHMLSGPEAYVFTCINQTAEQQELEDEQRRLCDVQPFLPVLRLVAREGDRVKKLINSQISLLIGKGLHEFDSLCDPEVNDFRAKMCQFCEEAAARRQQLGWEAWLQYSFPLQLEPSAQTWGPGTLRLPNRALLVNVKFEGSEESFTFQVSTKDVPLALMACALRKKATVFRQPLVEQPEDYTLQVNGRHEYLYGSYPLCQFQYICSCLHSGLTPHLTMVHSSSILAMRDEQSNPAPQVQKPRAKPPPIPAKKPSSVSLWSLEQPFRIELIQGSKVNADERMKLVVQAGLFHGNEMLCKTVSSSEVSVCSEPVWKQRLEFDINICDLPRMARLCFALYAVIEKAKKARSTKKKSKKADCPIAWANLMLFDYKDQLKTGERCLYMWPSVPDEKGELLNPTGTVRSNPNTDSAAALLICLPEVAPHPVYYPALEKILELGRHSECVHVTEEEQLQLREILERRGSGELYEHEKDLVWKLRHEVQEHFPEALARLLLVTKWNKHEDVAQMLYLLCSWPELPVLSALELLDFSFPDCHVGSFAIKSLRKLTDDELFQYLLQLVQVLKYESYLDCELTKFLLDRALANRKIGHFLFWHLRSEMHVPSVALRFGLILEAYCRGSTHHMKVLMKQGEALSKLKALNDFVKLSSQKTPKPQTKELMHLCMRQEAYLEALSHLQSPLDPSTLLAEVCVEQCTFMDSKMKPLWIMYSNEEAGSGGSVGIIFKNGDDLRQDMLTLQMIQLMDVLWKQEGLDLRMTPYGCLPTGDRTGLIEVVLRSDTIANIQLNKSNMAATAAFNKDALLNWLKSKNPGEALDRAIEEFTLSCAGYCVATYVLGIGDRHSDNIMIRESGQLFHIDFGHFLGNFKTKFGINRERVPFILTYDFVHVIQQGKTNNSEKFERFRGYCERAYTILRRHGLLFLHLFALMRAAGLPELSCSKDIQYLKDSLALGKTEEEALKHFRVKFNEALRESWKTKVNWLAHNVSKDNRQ
T1 sequence (P27986 whole entry partner, canonical isoform): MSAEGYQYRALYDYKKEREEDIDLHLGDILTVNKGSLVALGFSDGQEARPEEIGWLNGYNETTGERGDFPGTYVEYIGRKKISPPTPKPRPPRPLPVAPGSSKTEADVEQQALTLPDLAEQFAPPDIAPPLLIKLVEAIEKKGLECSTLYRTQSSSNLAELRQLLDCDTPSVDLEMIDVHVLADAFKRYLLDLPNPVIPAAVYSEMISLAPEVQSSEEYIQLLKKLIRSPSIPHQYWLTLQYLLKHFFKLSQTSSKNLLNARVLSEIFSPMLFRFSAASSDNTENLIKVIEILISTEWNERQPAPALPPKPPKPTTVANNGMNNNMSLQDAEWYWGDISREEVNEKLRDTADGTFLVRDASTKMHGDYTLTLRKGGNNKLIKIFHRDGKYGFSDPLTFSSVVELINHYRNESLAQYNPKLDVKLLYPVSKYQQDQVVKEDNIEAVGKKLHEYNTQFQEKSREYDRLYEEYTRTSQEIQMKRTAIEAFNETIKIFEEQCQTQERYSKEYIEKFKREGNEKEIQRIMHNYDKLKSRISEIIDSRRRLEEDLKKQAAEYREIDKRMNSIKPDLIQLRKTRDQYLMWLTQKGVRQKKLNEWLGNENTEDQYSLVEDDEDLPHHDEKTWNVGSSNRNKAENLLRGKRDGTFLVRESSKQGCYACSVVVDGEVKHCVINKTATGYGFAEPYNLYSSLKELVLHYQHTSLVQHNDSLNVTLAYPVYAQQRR

IC50 [1, 5] | EC50 [2, 6] | half-life at 2 μM [3, 7] | half-life at 1 μM [4, 8] | SMILES | IC50 [1] | EC50 ([2]; basophil activation) | half-life at 2 μM ([3]; human hepatocytes, read-out: t1/2^a) | half-life at 1 μM ([4]; human hepatocytes, read-out: t1/2^b)
1 to 10 nM | 1 to 10 nM | 6 to 10 h | 3 to 6 h | CC(Nc1nc(N)nc(N)c1C#N)c1nc2c(F)ccc(F)c2c(=O)n1-c1cc(F)cc(F)c1 (single isomer, unassigned) [Compound 21a] | – | – | – | –
1 to 10 nM | 1 to 10 nM | > 10 h | 1 to 3 h | CC(Nc1nc(N)nc(N)c1C#N)c1nc2c(Cl)ccc(F)c2c(=O)n1-c1cc(F)cc(F)c1 (single isomer, unassigned) [Compound 67a] | – | – | – | –
10 to 50 nM | 1 to 10 nM | > 10 h | 1 to 3 h | CCC(Nc1nc(N)nc(N)c1C#N)c1nc2c(F)ccc(F)c2c(=O)n1-c1cc(F)cc(F)c1 (single isomer, unassigned) [Compound 27a] | – | – | – | –
1 to 10 nM | 1 to 10 nM | > 10 h | 6 to 10 h | CC(Nc1nc(N)nc(N)c1C#N)c1nc2ccc(F)cc2c(=O)n1-c1cc(F)cc(F)c1 (single isomer, unassigned) [Compound 11a] | – | – | – | –
1 to 10 nM | 1 to 10 nM | > 10 h | 1 to 3 h | CC(Nc1nc(N)nc(N)c1C#N)c1nc2c(Cl)cccc2c(=O)n1-c1cc(F)cc(F)c1 (single isomer, unassigned) [Compound 71a] | – | – | – | –
10 to 50 nM | 1 to 10 nM | > 10 h | 1 to 3 h | CC(Nc1nc(N)nc(N)c1C#N)c1nc2cccc(F)c2c(=O)n1-c1cc(Cl)cc(Cl)c1 (single isomer, unassigned) [Compound 42a] | – | – | – | –
1 to 10 nM | 1 to 10 nM | > 10 h | 3 to 6 h | CC(Nc1nc(N)nc(N)c1C#N)c1nc2c(C#N)cccc2c(=O)n1-c1cc(F)cc(F)c1 (single isomer, unassigned) [Compound 101a] | – | – | – | –
1 to 10 nM | 1 to 10 nM | > 10 h | 3 to 6 h | CC(Nc1nc(N)nc(N)c1C#N)c1nc2c(F)cccc2c(=O)n1-c1cc(F)cc(F)c1 (single isomer, unassigned) [Compound 16a] | – | – | – | –
1 to 10 nM | 1 to 10 nM | > 10 h | 3 to 6 h | CC(Nc1nc(N)nc(N)c1C#N)c1nc2cccc(F)c2c(=O)n1-c1cc(F)cc(F)c1 (single isomer, unassigned) [Compound 10a] | – | – | – | –
10 to 50 nM | 1 to 10 nM | > 10 h | 3 to 6 h | CC(Nc1nc(N)nc(N)c1C#N)c1nc2cccc(F)c2c(=O)n1-c1cc(F)cc(C(F)F)c1 (single isomer, unassigned) [Compound 54a] | – | – | – | –
10 to 50 nM | 10 to 50 nM | 6 to 10 h | 3 to 6 h | CCC(Nc1nc(N)nc(N)c1C#N)c1nc2c(C)ccc(F)c2c(=O)n1-c1cc(F)cc(F)c1 (single isomer, unassigned) [Compound 37a] | – | – | – | –
10 to 50 nM | 1 to 10 nM | > 10 h | > 10 h | CC(Nc1nc(N)nc(N)c1C#N)c1nc2cccc(F)c2c(=O)n1-c1cccc(C#N)c1 (single isomer, unassigned) [Compound 38a] | – | – | – | –

SMILES | IC50 [1, 5] | EC50 [2, 6] | half-life at 2 μM [3, 7] | half-life at 1 μM [4, 8] | IC50 [1] | EC50 ([2]; basophil activation) | half-life at 2 μM ([3]; human hepatocytes, read-out: t1/2^a) | half-life at 1 μM ([4]; human hepatocytes, read-out: t1/2^b)
C[C@H](Nc1ncnc(N)c1C#N)c1nc2cccc(Cl)c2c(=O)n1-c1ccccc1 [Y, reference compound] | – | 10 to 50 nM | < 1 h | – | < 1 nM | > 15 nM | < 2 h | < 2 h
